Test results taken from US6410585B1, “Inhibitors of protein tyrosine phosphatase” (priority 1997, dated 2002).

Biological target: T1, rat PTP1 (Rattus norvegicus, UniProt P20417)
T1 construct: a C-terminal truncation of rat PTP1 (amino acid residues 1-322); GST (N, cleaved yes); made in house; host or cells: E. coli strain TG-1 (pGEX-2T)
T1 sequence (P20417 1-322): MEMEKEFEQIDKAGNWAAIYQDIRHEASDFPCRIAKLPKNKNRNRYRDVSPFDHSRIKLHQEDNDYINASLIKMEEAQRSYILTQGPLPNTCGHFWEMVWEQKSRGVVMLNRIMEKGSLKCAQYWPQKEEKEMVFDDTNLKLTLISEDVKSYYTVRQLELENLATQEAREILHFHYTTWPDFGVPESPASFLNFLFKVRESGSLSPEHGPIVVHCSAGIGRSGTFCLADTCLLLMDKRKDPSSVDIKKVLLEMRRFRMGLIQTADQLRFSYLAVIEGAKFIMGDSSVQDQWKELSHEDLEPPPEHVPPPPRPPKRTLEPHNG
Assay: PTP1 assay, pNPP hydrolysis (rate of change in A405)
Type: biochemical
Conditions: pNPP hydrolysis, Table 1; for inhibition at 1 µM / inhibition at 10 µM / inhibition at 100 µM: read-out: PTP1 Inhib % Inhib; for inhibition at 10 µM: Conc 10 uM
Excerpt: PTP1 Assays: A construct, which consisted of a C-terminal truncation of rat PTP1 (amino acid residues 1-322) (cloned from a rat brain library) with an N-terminal glutathione S-transferase (GST) tag and an adjacent thrombin cleavage site, was inserted into vector plasmid pGEX-2T and transformed into E. coli strain TG-1 under the control of a lac promoter (K. L. Guan and J. E. Dixon (1991) Eukaryotic proteins expressed in Escherichia coli: an improved thrombin cleavage and purification procedure of fusion proteins with glutathione S-transferase. Analyt. Biochem. 192: 262-267). The GST-fusion protein was purified on a glutathione agarose affinity column, the GST tag was cleaved with thrombin, and the active enzyme was recovered for use in an assay to identify PTP inhibitors.
PTP1 activity is measured using either p-nitrophenol phosphate (pNPP) or a triphosphopeptide (that matches residues 1142 through 1153 of the β-subunit and the insulin receptor) as substrate in a 96-well microtiter plate format. An assay pH of 7.2 is used for standard assays (measured 405=9800 at pH 7.2).
Standard assays are conducted at room temperature in a total volume of 0.2 ml that contains Hepes buffer (50 mM, pH 7.2), NaCl (50 mM), EDTA (1 mM), DTT (1 mM), bovine serum albumin (1 mg/ml), pNPP (1 mM) and PTP1 (35 ng/ml). Compounds (2 μl of 10 mM solutions) are pipetted into wells of microtiter plates followed by 198 μl of premixed reaction mix (with PTP1 and pNPP added immediately before use). The rate of change in A405 is recorded for 60 min. Two wells on each plate contain DMSO controls and two wells contain sodium orthovanadate (1 mM) which inhibits PTP1-catalyzed hydrolysis of pNPP completely. Data are expressed as percent inhibition relative to the average of the DMSO controls measured on the same microtiter plate.

Compound | inhibition at 1 µM (Conc 1 uM) [%] | inhibition at 10 µM [%] | inhibition at 100 µM (Conc 100 uM) [%] | PTP1 Inhib % Inhib (Conc 1 uM) [%] | PTP1 Inhib % Inhib (Conc 100 uM) [%]
CCCCCNC(=O)C(Cc1ccc(OS(=O)(=O)O)cc1)NC(=O)CCC(=O)O (centres unmarked) | 3 | 8 | 80 |  | 
CCCCCNC(=O)C(Cc1ccc(OC(COO)COO)cc1)NC(=O)CCC(=O)OCc1ccccc1 (centres unmarked) | 4 | 9 | 39 |  | 
CCCCCNC(=O)[C@H](Cc1ccc(OC(C(=O)O)C(=O)O)cc1)NC(=O)CCCC(=O)O | 2 | 17 | 67 |  | 
CCCCCNC(=O)[C@H](Cc1ccc(OC(C(=O)O)C(=O)O)cc1)NC(=O)C1CCCCC1C(=O)O (some centres unmarked) | 3 | 13 | 62 |  | 
CCCCCNC(=O)[C@H](Cc1ccc(OC(C(=O)O)C(=O)O)cc1)NC(=O)COCC(=O)O | 3 | 12 | 53 |  | 
CCCCCNC(=O)[C@H](Cc1ccc(OC(C(=O)O)C(=O)O)cc1)NC(=O)CC1(CC(=O)O)CCCC1 | 2 | 20 | 72 |  | 
CCCCCNC(=O)[C@H](Cc1ccc(OC(C(=O)O)C(=O)O)cc1)NC(=O)CC(=O)O | 4 | 20 | 74 |  | 
CCCCCNC(=O)C(Cc1ccc(OC(CCOO)COO)cc1)NC(=O)CCC(=O)O (centres unmarked) | 0 | 1 | 34 |  | 
CCCCCNC(=O)[C@H](Cc1ccc(OC(C(=O)O)C(=O)O)cc1)NC(=O)CC(C)(C)CC(=O)O | 0 | 18 | 67 |  | 
CCCCCNC(=O)[C@H](Cc1ccc(OC(C(=O)O)C(=O)O)cc1)NC(=O)c1ccccc1C(=O)O | 2 | 14 | 63 |  | 
CCCCCNC(=O)[C@H](Cc1ccc(OC(C(=O)O)C(=O)O)cc1)NC(=O)C1C2CCC(CC2)C1C(=O)O (some centres unmarked) | 4 | 5 | 41 |  | 
CCCCCCNC(=O)[C@H](Cc1ccc(OC(C(=O)O)C(=O)O)cc1)NC(=O)CCC(=O)O | 3 | 17 | 74 |  | 
O=C(O)CCC(=O)N[C@@H](Cc1ccc(OC(C(=O)O)C(=O)O)cc1)C(=O)NCC1CCCCC1 | 0 | 21 | 73 |  | 
CCCCCNC(=O)[C@H](Cc1ccc(OC(C(=O)O)C(=O)O)cc1)NC(=O)C(CC(=O)O)CC(=O)O | 1 | 33 | 83 |  | 
CCCCCNC(=O)[C@H](Cc1ccc(OC(C(=O)O)C(=O)O)cc1)NC(=O)C1CC1C(=O)O (some centres unmarked) | 0 | 11 | 57 |  | 
CCOC(CNC(=O)[C@H](Cc1ccc(OC(C(=O)O)C(=O)O)cc1)NC(=O)CCC(=O)O)OCC | 0 | 7 | 46 |  | 
CC(C)CCNC(=O)[C@H](Cc1ccc(OC(C(=O)O)C(=O)O)cc1)NC(=O)CCC(=O)O | 0 | 6 | 48 |  | 
O=C(O)CCC(=O)N[C@@H](Cc1ccc(OC(C(=O)O)C(=O)O)cc1)C(=O)NCCN1CCCCC1 | 0 | 2 | 23 |  | 
CCCCCNC(=O)C(Cc1ccc(OC(=CCOO)COO)cc1)NC(=O)CCC(=O)O (centres unmarked) | 0 | 9 | 50 |  | 
O=C(O)CCC(=O)N[C@@H](Cc1ccc(OC(C(=O)O)C(=O)O)cc1)C(=O)NCCCN1CCOCC1 | 0 | 6 | 35 |  | 
O=C(O)CCC(=O)N[C@@H](Cc1ccc(OC(C(=O)O)C(=O)O)cc1)C(=O)NCCC(c1ccccc1)c1ccccc1 | 0 | 3 | 45 |  | 
O=C(O)CCC(=O)N[C@@H](Cc1ccc(OC(C(=O)O)C(=O)O)cc1)C(=O)NCCCn1ccnc1 | 2 | 3 | 26 |  | 

Compound | inhibition at 1 µM (Conc 1 uM) [%] | inhibition at 10 µM [%] | inhibition at 100 µM (Conc 100 uM) [%] | PTP1 Inhib % Inhib (Conc 1 uM) [%] | PTP1 Inhib % Inhib (Conc 100 uM) [%]
CCCCCNC(=O)[C@H](Cc1ccc(OC(C(=O)O)C(=O)O)cc1)NC(=O)C1C(C(=O)O)[C@@H]2CC[C@@H]1C2 (some centres unmarked) | 0 | 4 | 37 |  | 
CCCCCNC(=O)[C@H](Cc1ccc(OC(C(=O)O)C(=O)O)cc1)NC(=O)[C@@H]1CCCC[C@H]1C(=O)O | 1 | 20 | 72 |  | 
CCCCCNC(=O)C(Cc1ccc(OC(COO)COO)cc1)NC(=O)NCC(=O)O (centres unmarked) | 4 | 23 | 75 |  | 
CCCCCNC(=O)C(Cc1ccc(OC(COO)COO)cc1)NC(=O)NCCCCCC(=O)O (centres unmarked) | 6 | 18 | 63 |  | 
CCCCCNC(=O)[C@H](Cc1ccc(OC(C(=O)O)C(=O)O)cc1)NC(=O)C(CC(=O)O)NC(=O)CCC(=O)O (some centres unmarked) | 27 | 75 | 96 |  | 
CCCCCNC(=O)[C@H](Cc1ccc(OC(C(=O)O)C(=O)O)cc1)NC(=O)C(CC(=O)O)NC(=O)OC(C)(C)C (some centres unmarked) | 13 | 53 | 90 |  | 
O=C(O)CCC(=O)NC(Cc1ccc(OC(COO)COO)cc1)C(=O)NCc1ccc2c(c1)OCO2 (centres unmarked) | 12 | 24 | 63 |  | 
O=C(O)CCC(=O)NC(Cc1ccc(OC(COO)COO)cc1)C(=O)NCCCc1ccccc1 (centres unmarked) | 8 | 23 | 72 |  | 
O=C(O)CCC(=O)NC(Cc1ccc(OC(COO)COO)cc1)C(=O)NCc1cccc2ccccc12 (centres unmarked) | 7 | 18 | 61 |  | 
CCCCCCCCCCNC(=O)C(Cc1ccc(OC(COO)COO)cc1)NC(=O)CCC(=O)O (centres unmarked) | 4 | 3 | 51 |  | 
NS(=O)(=O)c1ccc(CCNC(=O)C(Cc2ccc(OC(COO)COO)cc2)NC(=O)CCC(=O)O)cc1 (centres unmarked) | 4 | 19 | 63 |  | 
CCCCCNC(=O)C(Cc1ccc(OC(COO)COO)cc1)NC(=O)NCCC(=O)O (centres unmarked) | 2 | 21 | 72 | 3 | 74
CCCCCNC(=O)[C@H](Cc1ccc(OC(C(=O)O)C(=O)O)cc1)NC(=O)C(CC(=O)O)NC(=O)OCc1ccccc1 (some centres unmarked) | 10 | 51 | 90 |  | 
CCCCCNC(=O)[C@H](Cc1ccc(OC(C(=O)O)C(=O)O)cc1)NC(=O)[C@H](CC(=O)O)NC(=O)CCCCC | 14 | 57 | 91 |  | 
CCCCCNC(=O)[C@H](Cc1ccc(C=C(C(=O)O)C(=O)O)cc1)NC(=O)CCC(=O)O | 3 | 6 | 33 |  | 
O=C(O)CCC(=O)N[C@@H](Cc1ccc(OC(C(=O)O)C(=O)O)cc1)C(=O)NCCc1ccc(O)cc1 | 1 | 7 | 43 |  | 
CCCCCNC(=O)[C@H](Cc1ccc(OC(C(=O)O)C(=O)O)cc1)NC(=O)CCC(N)=O | 0 | 11 | 51 |  | 
CCCCCNC(=O)C(Cc1ccc(OC(C(=O)O)C(=O)O)cc1)NC(=O)C(CC(=O)O)NC(=O)OC(C)(C)C (centres unmarked) | 16 | 62 | 94 |  | 
O=C(O)CCC(=O)NC(Cc1ccc(OC(COO)COO)cc1)C(=O)NCc1ccc(C(=O)O)cc1 (centres unmarked) | 3 | 14 | 56 |  | 
CCCCCNC(=O)C(Cc1ccc(OC(COO)COO)cc1)NC(=O)N(CC(=O)O)Cc1ccc(OCc2ccccc2)cc1 (centres unmarked) | 5 | 35 | 90 |  | 
CCCCCNC(=O)C(Cc1ccc(OCC(=O)O)c(COO)c1)NC(=O)CCC(=O)O (centres unmarked) | 17 | 63 | 93 |  | 
